Test results as given in patent US12128257B2, “Extracts of Isochrysis sp” (SYMRISE AG, priority 2008, dated 2024).

System: hair follicles
Test: Hair follicle growth (elongation) in organ culture of scalp hair follicles, image analysis
Format: cell-based, human
Conditions: Table 7, day 10 of culture, pooled from two donors
Experimental: For each experiment and the control 9-12 follicles were used, plated at the density of 3 hair follicles/well in 24 well plates. Hair follicles were taken from the head of the scalp and transferred for cultivation in sterile 24 well plates using a modified Williams' Medium E. Cultivation took place for nine days, following 18 h of pre-incubation performed in order to select hair follicles suitable to be maintained in culture. Only those follicles showing a good vital stage and a growth of not less than 0.2 mm were used.
The growth performances observed in the treated hair follicles were compared to a control group, which was cultured in the same culture medium but free from extract supplement.
[…] In order to obtain these supplemented media, the required quantity of dir-MeOH extract was submitted to solvent evaporation and then redissolved again in DMSO. The final concentration of this DMSO-solved extract has been adjusted in order to supplement the experimental media with the desired extract quantity, obtaining at same time a final concentration in DMSO equal to 0.05%. The same concentration of DMSO has also been used in the medium for the culture of the control group.
The experiments were terminated after 10 days of cultivation (9 days of treatment). The growth of the hair follicles was studied by microphotography and subsequently determined by image analysis. All the hair follicles were photographed every two days.
1, were the hair follicle elongation is expressed as percentage ratio between the experimental groups and the untreated control: […]

CC/C=C\C/C=C\C/C=C\C/C=C\C/C=C\C/C=C\CCC(=O)O [DHA, docosahexaenoic acid]
Growth (%): Elongation in [%] of the control performance (0.003 μg/ml): 99.5%
Growth (%): Elongation in [%] of the control performance (0.03 μg/ml): 93.5%
Growth (%): Elongation in [%] of the control performance (0.3 μg/ml): 89.3%
